# According to US10781214B2, “Kinase inhibitor against wild-type and mutant EGFR” (PRECEDO PHARMACEUTICALS CO., LTD, priority 2015, dated 2020):
# What was measured:
# Assay type in all cases: cell-based
# [1] = system: NCI-H1975 (expressing EGFR L858R/T790M double-mutant gene); experiment: Cancer cell growth, Cell Titer-Glo, 72 h: NCI-H1975; settings: Homo sapiens; NCI-H1975 cells, 72 h; read-out: GI50
# Text: (§1) Compounds of the present invention were further evaluated for their selectivity in inhibiting proliferation of cancer cells by testing effects of the novel kinase inhibitors on proliferation of cancer cells. In the examples the following cells were selected: human non-small cell lung cancer cell NCI-H1975 (expressing EGFR L858R/T790M double-mutant gene), human-derived non-small cell lung cancer cell PC-9 (expressing EGFR delE746_A750 mutant gene), human-derived non-small cell lung cancer cell HCC827 (expressing EGFR delE746_A750 mutant gene), human lung adenocarcinoma cell HCC4006 (expressing EGFR delE746_A750 mutant gene), human non-small cell lung cancer cell NCI-H3255 (expressing EGFR L858R mutant gene), human skin squamous carcinoma cell A431 (expressing wild-type EGFR gene), human non-small cell lung cancer cell A549 (expressing wild-type EGFR gene), human non-small cell lung cancer cell NCI-H460 (expressing wild-type EGFR gene), human non-small cell lung cancer cell NCI-H2122 (expressing wild-type EGFR gene), Chinese hamster ovary (CHO) cell (Cricetulus griseus, hamster, Chinese, ovary), Chinese hamster lung cell (CHL), mouse pro-B cell BaF3. The cells above were all purchased from (USA).
# (§2) The cells were incubated for 72 h, and then the number of viable cells was determined via quantitative determination with a microplate reader by using Cell Titer-Glo® (Promega, the USA) Luminescent Cell Viability Assay kit.
# [2] = system: PC-9 (expressing EGFR delE746_A750 mutant gene); experiment: Cancer cell growth, Cell Titer-Glo, 72 h: PC-9; settings: Homo sapiens; PC-9 cells, 72 h; read-out: GI50
# Text: as §1, §2
# [3] = system: NCI-H3255 (expressing EGFR L858R mutant gene); experiment: Cancer cell growth, Cell Titer-Glo, 72 h: NCI-H3255; settings: Homo sapiens; NCI-H3255 cells, 72 h; read-out: GI50
# Text: as §1, §2
# [4] = system: A431 (expressing wild-type EGFR gene); experiment: Cancer cell growth, Cell Titer-Glo, 72 h: A431; settings: Homo sapiens, A-431; A431 cells, 72 h; read-out: GI50
# Text: as §1, §2
# [5] = system: A549 (expressing wild-type EGFR gene); experiment: Cancer cell growth, Cell Titer-Glo, 72 h: A549; settings: Homo sapiens; A549 cells, 72 h; read-out: GI50
# Text: as §1, §2
# mouse pro-B cell BaF3 = experiment: Cell growth, Cell Titer-Glo, 72 h: BaF3; settings: BaF3 cells, 72 h, read-out: GI50
# Text: as §1, §2
# [6] = system: BaF3-TEL-EGFR (stably expressing wild-type EGFR kinase); experiment: Cell growth, Cell Titer-Glo, 72 h: BaF3-TEL-EGFR; settings: Mus musculus, BaF3-TEL-EGFR cells, read-out: GI50
# Text: (§3) In addition, this example further uses: mouse BaF3-TEL-EGFR (stably expressing wild-type EGFR kinase), mouse BaF3-TEL-EGFR-L858R (stably expressing EGFR L858R mutant kinase), mouse BaF3-TEL-EGFR-T790M (stably expressing EGFR T790M mutant kinase), mouse BaF3-FL-EGFR-DeI19 (stably expressing EGFR delE746_A750 mutant kinase), mouse BaF3-FL-EGFR-T790M-L858R (stably expressing EGFR T790M/L858R mutant kinase), mouse BaF3/P210 (stably expressing bcr/abl˜(P210) mutant kinase), mouse BaF3-TEL-ABL-T315I (stably expressing ABLT315I mutant kinase), mouse BaF3-FLT3-ITD (stably expressing FLT3/ITD mutant kinase), mouse BaF3-TEL-JAK2 (stably expressing JAK2 kinase), mouse BaF3-TEL-JAK3 (stably expressing JAK3 kinase), mouse BaF3-TPR-MET (stably expressing MET kinase), mouse BaF3-TEL-BLK (stably expressing BLK kinase), mouse BaF3-TEL-ABL (stably expressing ABL kinase), mouse BaF3-TEL-BMX (stably expressing BMX kinase), mouse BaF3-TEL-ALK (stably expressing ALK kinase). The above cell lines were all constructed by our laboratory according to the following method: the kinase region sequences of human […], EGFR L858R, EGFR T790M, EGFR delE746_A750, EGFR T790M/L858R, bcr/abl˜(P210), ABL T315I, FLT3/ITD, JAK2, JAK3, MET, BLK, ABL, BMX, ALK were amplified respectively by PCR, inserted respectively into MSCV-Puro vectors harboring N-terminal fragment and/or NPM fragment and/or TPR fragment (Clontech), then the vectors were stably transfected into mouse BaF3 cells by retrovirus methods and growth factor IL-3 was removed, eventually obtaining cell lines that are transferred protein (EGFR, EGFR L858R, EGFR T790M, EGFR delE746_A750, EGFR T790M/L858R, bcr/abl˜(P210), ABL T315I, FLT3/ITD, JAK2, JAK3, MET, BLK, ABL, BMX, ALK)-dependent.
# as §2
# [7] = system: BaF3-FL-EGFR-T790M-L858R (stably expressing EGFR T790M/L858R mutant kinase); experiment: Cell growth, Cell Titer-Glo, 72 h: BaF3-FL-EGFR-T790M-L858R; settings: Mus musculus, BaF3-FL-EGFR-T790M-L858R cells
# Text: as §3, §2
# [8] = system: HCC827 (expressing EGFR delE746_A750 mutant gene); experiment: Cancer cell growth, Cell Titer-Glo, 72 h: HCC827; settings: Homo sapiens; HCC827 cells, 72 h; read-out: GI50
# Text: as §1, §2
GI50 [1],GI50 [2],GI50 [3],GI50 [4],GI50 [5],GI50 (mouse pro-B cell BaF3),GI50 [6],GI50 [7],GI50 [8],Compound
> 10000 nM,> 10000 nM,> 10000 nM,,,> 10000 nM,,,,"C=CC(=O)N1CCC[C@@H](n2nc(-c3ccc(OCc4cccc(F)c4)nc3)c3c(N)ncnc32)C1 [Compound 19, (R)-1-(3-(4-amino-3-(6-((3-fluorobenzyl)oxy)pyridin-3-yl)-1H-pyrazolo[3,4-d]pyrimidin-1-yl)piperidin-1-yl)prop-2-en-1-one]"
5100 nM,1700 nM,3800 nM,8700 nM,2800 nM,4600 nM,6600 nM,,,C=CC(=O)Nc1cc(Cn2nc(-c3ccc(F)c(Cl)c3)c3c(N)ncnc32)ccc1F [Compound 38]
95 nM,9 nM,43 nM,> 10000 nM,> 10000 nM,> 10000 nM,2200 nM,53 nM,,"C=CC(=O)N1CCC[C@@H](n2nc(-c3ccc(F)c(Cl)c3)c3c(N)ncnc32)C1 [Compound 31, (R)-1-(3-(4-amino-3-(3-chloro-4-flurophenyl)-1H-pyrazolo[3,4-d]pyrimidin-1-yl)piperidin-1-yl)prop-2-en-1-one]"
,14 nM,20 nM,,,8500 nM,4200 nM,1 nM,,"C=CC(=O)N1CCC[C@@H](n2nc(-c3ccc(OCc4ccccc4F)c(Cl)c3)c3c(N)ncnc32)C1 [Compound 18, (R)-1-(3-(4-amino-3-(3-chloro-4-((2-fluorobenzyl)oxy)phenyl)-1H-pyrazolo[3,4-d]pyrimidin-1-yl)piperidin-1-yl)prop-2-en-1-one]"
7 nM,7 nM,< 0.3 nM,,3800 nM,4300 nM,,< 0.3 nM,,"C=CC(=O)N1CCC[C@@H](n2nc(-c3ccc(OCc4cc(F)ccc4F)c(Cl)c3)c3c(N)ncnc32)C1 [Compound 23, (R)-1-(3-(4-amino-3-(3-chloro-4-((2,5-difluorobenzyl)oxy)phenyl)-1H-pyrazolo[3,4-d]pyrimidin-1-yl)piperidin-1-yl)prop-2-en-1-one]"
38 nM,16 nM,9 nM,,,2500 nM,1400 nM,< 0.3 nM,,"C=CC(=O)N1CCC[C@@H](n2nc(-c3ccc(OCc4cccc(F)c4)c(C)c3)c3c(N)ncnc32)C1 [Compound 14, (R)-1-(3-(4-amino-3-(3-methyl-4-((3-fluorobenzyl)oxy)phenyl)-1H-pyrazolo[3,4-d]pyrimidin-1-yl)piperidin-1-yl)prop-2-en-1-one]"
1600 nM,6 nM,< 0.3 nM,,> 10000 nM,1900 nM,,< 0.3 nM,,"C=CC(=O)N1CCC[C@@H](n2nc(-c3ccc(OCc4cccc(F)c4)cc3F)c3c(N)ncnc32)C1 [Compound 24, (R)-1-(3-(4-amino-3-(2-fluoro-4-((3-fluorobenzyl)oxy)phenyl)-1H-pyrazolo[3,4-d]pyrimidin-1-yl)piperidin-1-yl)prop-2-en-1-one]"

# The next lines start with the compound.
Compound,GI50 [1],GI50 [2],GI50 [3],GI50 [4],GI50 [5],GI50 (mouse pro-B cell BaF3),GI50 [6],GI50 [7],GI50 [8]
"C=CC(=O)N1CCC[C@@H](n2nc(-c3ccc(OCc4ccc(C)nc4)c(Cl)c3)c3c(N)ncnc32)C1 [Compound 30, (R)-1-(3-(4-amino-3-(3-chloro-4-((6-methylpyridin-3-yl)methoxy)phenyl)-1H-pyrazolo[3,4-d]pyrimidin-1-yl)piperidin-1-yl)prop-2-en-1-one]",3 nM,38 nM,36 nM,> 10000 nM,> 10000 nM,> 10000 nM,3300 nM,2 nM,
"C=CC(=O)N1CCC[C@@H](n2nc(-c3ccc(OCc4ccccn4)c(C(F)(F)F)c3)c3c(N)ncnc32)C1 [Compound 35, (R)-1-(3-(4-amino-3-(3-trifluoromethyl-4-(pyridin-2-ylmethoxy)phenyl)-1H-pyrazolo[3,4-d]pyrimidin-1-yl)piperidin-1-yl)prop-2-en-1-one]",56 nM,180 nM,46 nM,> 10000 nM,3100 nM,> 10000 nM,3600 nM,< 0.3 nM,
"C=CC(=O)N1CCC[C@@H](n2nc(-c3ccc(OCc4nccs4)c(Cl)c3)c3c(N)ncnc32)C1 [Compound 28, (R)-1-(3-(4-amino-3-(3-chloro-4-(thiazol-2-ylmethoxy)phenyl)-1H-pyrazolo[3,4-d]pyrimidin-1-yl)piperidin-1-yl)prop-2-en-1-one]",8 nM,10 nM,< 0.3 nM,> 10000 nM,> 10000 nM,9800 nM,2800 nM,2 nM,
"C=CC(=O)N1CCC[C@@H](n2nc(-c3ccc(OCc4ncc(C)c(OC)c4C)c(Cl)c3)c3c(N)ncnc32)C1 [Compound 36, (R)-1-(3-(4-amino-3-(3-chloro-4-((4-methoxy-3,5-dimethylpyridin-2-yl)methoxy)phenyl)-1H-pyrazolo[3,4-d]pyrimidin-1-yl)piperidin-1-yl)prop-2-en-1-one]",< 0.3 nM,24 nM,44 nM,> 10000 nM,3400 nM,> 10000 nM,3500 nM,< 0.3 nM,
C=CC(=O)N1CCC[C@@H](n2nc(-c3ccc(CN4CCN(C)CC4)cc3)c3c(N)ncnc32)C1 [Compound 20],> 10000 nM,7000 nM,4900 nM,,> 10000 nM,> 10000 nM,,> 10000 nM,
"C=CC(=O)N1CCC[C@@H](n2nc(-c3ccc(OCc4cccc(F)c4)c(C#N)c3)c3c(N)ncnc32)C1 [Compound 16, (R)-1-(3-(4-amino-3-(3-cyano-4-((3-fluorobenzyl)oxy)phenyl)-1H-pyrazolo[3,4-d]pyrimidin-1-yl)piperidin-1-yl)prop-2-en-1-one]",,51 nM,28 nM,,,> 10000 nM,> 10000 nM,52 nM,
C=CC(=O)N1CCC[C@@H](n2nc(-c3ccc(OCc4cccc(F)c4)c(OC)c3)c3c(N)ncnc32)C1 [Compound 8],350 nM,25 nM,56 nM,,2700 nM,> 10000 nM,,43 nM,84 nM
"CN(C)C/C=C/C(=O)N1CCC[C@@H](n2nc(-c3ccc(F)c(Cl)c3)c3c(N)ncnc32)C1 [Compound 32, (R)-1-(3-(4-amino-3-(3-chloro-4-flurophenyl)-1H-pyrazolo[3,4-d]pyrimidin-1-yl)piperidin-1-yl)-4-(dimethylamino)but-2-en-1-one]",710 nM,170 nM,330 nM,3900 nM,> 10000 nM,4500 nM,690 nM,130 nM,
